Results reported in ChEMBL document CHEMBL3352252, “Design, synthesis and molecular modeling of biquinoline-pyridine hybrids as a new class of potential EGFR and HER-2 kinase inhibitors” (Bioorg Med Chem Lett, 2014).

How the values were obtained:
[1] = target: Receptor tyrosine-protein kinase erbB-2 (Homo sapiens, UniProt P04626); assay: Inhibition of histidine-tagged recombinant HER2 (unknown origin) expressed in Sf9 cells assessed as reduction in enzyme autophosphorylation by DELFIA/time-resolved fluorometry
Receptor tyrosine-protein kinase erbB-2, sequence (P04626 whole entry, the tested form may be a part): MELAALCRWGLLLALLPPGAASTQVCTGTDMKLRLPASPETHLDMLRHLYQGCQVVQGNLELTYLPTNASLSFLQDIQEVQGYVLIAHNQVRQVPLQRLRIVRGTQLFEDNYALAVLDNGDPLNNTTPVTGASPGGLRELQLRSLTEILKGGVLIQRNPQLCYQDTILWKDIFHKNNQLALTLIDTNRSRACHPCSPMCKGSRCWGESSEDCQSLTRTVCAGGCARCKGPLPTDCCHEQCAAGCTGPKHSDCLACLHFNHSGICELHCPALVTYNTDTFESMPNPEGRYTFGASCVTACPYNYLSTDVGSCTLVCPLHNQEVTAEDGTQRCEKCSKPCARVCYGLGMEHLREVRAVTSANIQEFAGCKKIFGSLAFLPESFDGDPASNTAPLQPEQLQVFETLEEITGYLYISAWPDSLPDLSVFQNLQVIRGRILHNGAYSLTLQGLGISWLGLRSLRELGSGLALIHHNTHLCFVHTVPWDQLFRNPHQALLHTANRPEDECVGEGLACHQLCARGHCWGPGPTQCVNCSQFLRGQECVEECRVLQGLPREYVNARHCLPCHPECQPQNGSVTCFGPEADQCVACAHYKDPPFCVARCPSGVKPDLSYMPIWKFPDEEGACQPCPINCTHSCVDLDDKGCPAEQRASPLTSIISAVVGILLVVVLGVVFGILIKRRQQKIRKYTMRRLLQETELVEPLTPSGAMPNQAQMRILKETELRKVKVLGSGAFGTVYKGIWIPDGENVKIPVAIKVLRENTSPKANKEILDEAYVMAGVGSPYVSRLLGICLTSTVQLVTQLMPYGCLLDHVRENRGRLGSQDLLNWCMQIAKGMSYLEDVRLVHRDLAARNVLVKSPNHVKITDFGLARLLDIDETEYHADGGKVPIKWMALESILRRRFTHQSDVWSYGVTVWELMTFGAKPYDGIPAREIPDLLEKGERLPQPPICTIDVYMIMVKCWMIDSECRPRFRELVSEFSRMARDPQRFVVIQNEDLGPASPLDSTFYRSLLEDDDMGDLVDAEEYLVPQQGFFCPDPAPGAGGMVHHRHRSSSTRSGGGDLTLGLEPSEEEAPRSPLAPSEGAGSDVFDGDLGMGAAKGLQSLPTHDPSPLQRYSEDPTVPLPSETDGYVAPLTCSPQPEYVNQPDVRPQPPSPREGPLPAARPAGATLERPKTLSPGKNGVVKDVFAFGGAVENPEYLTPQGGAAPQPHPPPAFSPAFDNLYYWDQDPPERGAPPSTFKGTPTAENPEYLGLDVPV

[2] = target: Epidermal growth factor receptor (Homo sapiens, UniProt P00533); assay: Inhibition of histidine-tagged recombinant EGFR cytoplasmic domain (amino acids 645-1186) (unknown origin) expressed in Sf9 cells assessed as reduction in enzyme autophosphorylation by DELFIA/time-resolved fluorometry
Epidermal growth factor receptor, sequence (P00533 whole entry, the tested form may be a part): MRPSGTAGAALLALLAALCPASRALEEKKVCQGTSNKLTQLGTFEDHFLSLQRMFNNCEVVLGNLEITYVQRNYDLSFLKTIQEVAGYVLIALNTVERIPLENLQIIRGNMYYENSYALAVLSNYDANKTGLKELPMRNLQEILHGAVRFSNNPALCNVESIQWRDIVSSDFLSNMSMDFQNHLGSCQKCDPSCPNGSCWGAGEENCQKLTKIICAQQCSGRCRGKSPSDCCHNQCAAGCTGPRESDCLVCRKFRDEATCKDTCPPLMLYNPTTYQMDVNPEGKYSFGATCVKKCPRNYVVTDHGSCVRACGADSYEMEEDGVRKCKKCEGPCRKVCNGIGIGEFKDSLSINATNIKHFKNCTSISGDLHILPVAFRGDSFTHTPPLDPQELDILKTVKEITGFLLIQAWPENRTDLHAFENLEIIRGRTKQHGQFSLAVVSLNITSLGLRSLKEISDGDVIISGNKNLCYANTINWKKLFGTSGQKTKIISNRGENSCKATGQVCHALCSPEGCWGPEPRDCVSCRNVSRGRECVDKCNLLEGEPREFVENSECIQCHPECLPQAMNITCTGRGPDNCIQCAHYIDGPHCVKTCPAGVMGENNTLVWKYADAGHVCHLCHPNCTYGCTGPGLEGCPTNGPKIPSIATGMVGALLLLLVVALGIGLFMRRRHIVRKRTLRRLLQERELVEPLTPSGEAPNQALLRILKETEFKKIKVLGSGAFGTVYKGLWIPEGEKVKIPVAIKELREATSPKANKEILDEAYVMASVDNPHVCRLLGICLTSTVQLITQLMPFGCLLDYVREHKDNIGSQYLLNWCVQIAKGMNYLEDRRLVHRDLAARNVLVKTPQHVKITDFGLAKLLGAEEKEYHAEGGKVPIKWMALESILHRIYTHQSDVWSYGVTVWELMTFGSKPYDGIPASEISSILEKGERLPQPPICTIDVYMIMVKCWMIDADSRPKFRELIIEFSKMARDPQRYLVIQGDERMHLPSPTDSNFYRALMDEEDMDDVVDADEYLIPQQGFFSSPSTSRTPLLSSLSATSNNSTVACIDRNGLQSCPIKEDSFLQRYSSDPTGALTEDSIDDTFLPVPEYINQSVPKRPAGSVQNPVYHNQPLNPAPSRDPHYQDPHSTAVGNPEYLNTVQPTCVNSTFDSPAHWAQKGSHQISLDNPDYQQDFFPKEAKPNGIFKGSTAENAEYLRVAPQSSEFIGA

[3] = tested on: A549; assay: Antiproliferative activity against human A549 cells after 48 hrs by MTT assay; assay type: functional, cell-based; conditions: A549, 48 h
[4] = tested on: HepG2; assay: Antiproliferative activity against human HepG2 cells after 48 hrs by MTT assay; assay type: functional, cell-based; conditions: HepG2, 48 h

SMILES	IC50 [1] [µM]	IC50 [2] [µM]	IC50 [3] [µM]	IC50 [4] [µM]
Cc1ccc2c(c1)cc(C1C(C#N)=C(N)N(c3cccnc3)C3=C1C(=O)CCC3)c1nnnn12 (stereo not drawn)	14.8	10.4	18.1	16.1
COC(=O)C1=C(N)N(c2cccnc2)C2=C(C(=O)CCC2)C1c1cc2cc(OC)ccc2n2nnnc12 (stereo not drawn)	2.1	1.3	6.4	6
COC(=O)C1=C(N)N(c2cccnc2)C2=C(C(=O)CCC2)C1c1cc2cc(Cl)ccc2n2nnnc12 (stereo not drawn)	9	8.1	0.1	1.3
COc1ccc2c(c1)cc(C1C(C#N)=C(N)N(c3cccnc3)C3=C1C(=O)CCC3)c1nnnn12 (stereo not drawn)	8.9	5.4	23.1	21.2
COC(=O)C1=C(N)N(c2cccnc2)C2=C(C(=O)CCC2)C1c1cc2ccccc2n2nnnc12 (stereo not drawn)	1.9	1.1	1.1	1.5
CCOC(=O)C1=C(N)N(c2cccnc2)C2=C(C(=O)CCC2)C1c1cc2ccccc2n2nnnc12 (stereo not drawn)	0.2	0.09	0.4	0.1
N#CC1=C(N)N(c2cccnc2)C2=C(C(=O)CCC2)C1c1cc2cc(Cl)ccc2n2nnnc12 (stereo not drawn)	–	–	7.8	5.9
C#Cc1cccc(Nc2ncnc3cc(OCCOC)c(OCCOC)cc23)c1 [ERLOTINIB]	–	–	0.1	0.1
N#CC1=C(N)N(c2cccnc2)C2=C(C(=O)CCC2)C1c1cc2ccccc2n2nnnc12 (stereo not drawn)	5.2	4.8	13	11

Next, values leading:

IC50 [1] [µM]	IC50 [2] [µM]	IC50 [3] [µM]	IC50 [4] [µM]	SMILES
22.7	16.7	1.3	5.5	CCOC(=O)C1=C(N)N(c2cccnc2)C2=C(C(=O)CCC2)C1c1cc2cc(Cl)ccc2n2nnnc12 (stereo not drawn)
5.2	4.3	5.4	1.9	COC(=O)C1=C(N)N(c2cccnc2)C2=C(C(=O)CCC2)C1c1cc2cc(C)ccc2n2nnnc12 (stereo not drawn)
4.1	7	8.5	7.1	CCOC(=O)C1=C(N)N(c2cccnc2)C2=C(C(=O)CCC2)C1c1cc2cc(C)ccc2n2nnnc12 (stereo not drawn)
0.8	0.2	15.4	18.3	CCOC(=O)C1=C(N)N(c2cccnc2)C2=C(C(=O)CCC2)C1c1cc2cc(OC)ccc2n2nnnc12 (stereo not drawn)
